The results in this text go back to patent US20190144828A1, “HAEMATOPOIETIC STEM/PROGENITOR CELLS” (priority 2016, published 2019).

The subject of one test is HOXA and CDX genes. The test is described as follows: RT-PCR of HOXA and CDX genes in differentiating hESC cultures supplemented with SB, CHIR or SB/CHIR. It is filed as cell-based, human. The settings on record: added from differentiation days 2 to 4; RT-PCR at d4 and d7. The method, then:
Total RNA was prepared from ES cells and dissociated EBs using the Qiagen RNeasy kit or the Bioline Isolate II RNA Mini Kit according to the manufacturers' instructions. cDNA was reverse transcribed using random hexamer priming and Superscript III (Invitrogen) or Tetro (Bioline) cDNA synthesis kits as specified by the manufacturer. Human RUNX1 isoform specific primers (Table 1) were based on those designed for mouse Runx1 previously. For other genes, TaqMan gene expression probes and reagents (Applied Biosystems) were used for quantitative real-time PCR analysis and GAPDH was used as the reference gene to normalize data.
The HES3 and H9 human embryonic stem cell lines used in these studies were obtained from ES Cell International (now owned by Biotime Inc) and WiCell. The human ESC work was approved by the Monash Medical Centre and Royal Children's Hospital Human Research Ethics Committees. Culture and enzymatic passaging of hESC lines was performed as reported in Ng et al. Nature Protocols 3, 768-776 (2008). […] Brightfield and fluorescence images comparing RUNX1C^GFP/w with RUNX1C^GFP/GFP cell cultures shown in FIG. 1b were representative of 3 independent experiments. […]

Test [1] concerns anterior and posterior HOXA genes. The test can be described thus: HOXA gene expression in hPSCs with EC23 and/or SB CHIR (FIG. 29). The test is classed as cell-based, human. The settings on record: d2-4. Here is the method:
hPSCs were differentiated in medium supplemented with CHIR99021, BMP4, VEGF, SCF, ACTIVIN A and FGF2 (denoted CH BVSAF in FIG. 29) from d0-4, or with an additional pulse of SB431542 and CHIR99021 (denoted SB CHIR in FIG. 29) from d2-4. Cultures also were treated with the retinoic acid analogue EC23 at 0, 10^−5 M or 10^−7 M concentrations from d2-4 (denoted 0, 10-5 and 10-7, respectively in FIG. 29). […] Gene expression was normalized to GAPDH and is shown in arbitrary units in FIG. 29.

Turning to `Cc1c[nH]c(-c2cnc(NCCNc3ccc(C#N)cn3)nc2-c2ccc(Cl)cc2Cl)n1` [CHIR, CHIR99021], in the test on HOXA and CDX genes, the “HOXA gene expression compared with control cultures” value was “increased HOXA9 and HOXA10 expression”. For the molecule `CC1(C)CCC(C)(C)c2cc(C#Cc3ccc(C(=O)O)cc3)ccc21` [EC23], the “effectiveness on HOXA gene induction” value in test [1] (10^−5 M) and in test [1] (10^−7 M) was “effective” throughout. Take `NC(=O)c1ccc(-c2nc(-c3ccc4c(c3)OCO4)c(-c3ccccn3)[nH]2)cc1` [SB, SB431542]: the “HOXA gene expression compared with control cultures” value in the test with HOXA and CDX genes was “increased HOXA3, HOXA7 and HOXA9 expression”.
